Reference: paper PMC11487390, “Design and Synthesis of 1,3-Diarylpyrazoles and Investigation of Their Cytotoxicity and Antiparasitic Profile” (International Journal of Molecular Sciences, 2024)
Counter-ions that a name gives are not always drawn. Like-named read-outs stand apart in the source and are kept apart here.

Tests used:
[1] = test system: T. b. rhodesiense STIB-900 strain; assay: T. b. rhodesiense growth assay (resazurin, 3 days); type: cell-based, Trypanosoma brucei rhodesiense; conditions: Trypanosoma brucei, RHODESIENSE, 72 h
Procedure: (§1) The MRC-5SV2 human lung fibroblast cell line was cultured in MEM + Earle’s salts-medium, supplemented with 2 mM L-glutamine, 16.5 mM NaHCO3, and 5% inactivated fetal calf serum. For evaluating the antileishmanial activity, the L. infantum MHOM/MA(BE)/67 strain was used. This strain was maintained in a Golden hamster (Mesocricetus auratus). Amastigotes were collected from the spleen of an infected donor hamster using differential centrifugation. Primary peritoneal mouse macrophages were used as host cells and were collected 2 days after peritoneal stimulation with a 2% potato starch suspension. For the intracellular T. cruzi assays, the Tulahuen CL2 strain was used that expresses β-galactosidase. The strain was maintained in MRC-5SV2 cells in MEM medium. The T. b. brucei Squib 427 strain or T. b. rhodesiense STIB-900 strain was used for screening against the extracellular African trypanosomes. The strains were maintained in Hirumi’s Modified Iscove’s medium-9 (HMI-9), supplemented with 10% inactivated fetal calf serum. All cultures and assays were performed at 37 °C with 5% CO2.
(§2) Compound stock solutions were prepared in 100% DMSO at 20 mM. The compounds were serially pre-diluted by robotic plate production (4-fold) in DMSO followed by a further (intermediate) dilution in demineralized water to assure a final in-test DMSO concentration of <1%. Identical test plates containing 10 µL of the different concentrations of each compound were produced for the different assays. For the cytotoxicity assays, 5 concentrations per compound were tested (64–16–4–1–0.25 µM). For the parasitic assays, 10 concentrations per compound were tested, ranging from 64 µM to 0.2 nM.
(§3) Parasite suspensions (1.5 × 10^4 T. b. brucei/well or 4 × 10^3 T. b. rhodesiense/well) in HMI-9 medium were exposed in a total volume of 200 µL to 10 µL of the compound dilutions Parasite growth was assessed fluorimetrically after 3 days of incubation by the addition of 50 µL resazurin per well. After 6 h (T. b. rhodesiense) or 24 h (T. b. brucei) at 37 °C, fluorescence was measured (λex 550 nm, λem 590 nm), from which viability and EC50 values could be determined.

[2] = test system: T. b. brucei Squib 427 strain; assay: T. b. brucei growth assay (resazurin, 3 days); type: cell-based, Trypanosoma brucei brucei; conditions: Trypanosoma brucei, 72 h
Procedure: as §1, §2, §3

[3] = Cytotoxicity assay, MRC-5SV2 cells, resazurin, 3 days; type: cell-based; conditions: human, MRC-5SV2 human lung fibroblast cells, MRC-5 cells, highest concentration 64 µM
Procedure: The series of final products (13–69) was investigated in vitro on the human fetal lung fibroblast cell line MRC-5 (Table 1) to assess cytotoxicity toward normal (i.e., non-malignant) human cells. […] As explained earlier, these are important pathogens for humans or cattle (T. b. brucei) and a persistent need for new therapeutics exists for these parasites. As a part of the antiparasitic tests, cytotoxicity against primary mouse macrophages (PMMs) was also evaluated. These murine cells serve as host cells for parasites in the L. infantum assay. Therefore, the murine macrophage assay not only offers additional cytotoxicological insight but is also essential to interpreting the readout of the L. infantum assay.
as §1, §2
Assays were performed in sterile 96-well microtiter plates, each well containing 10 µL of the watery compound dilutions together with 190 µL of MRC-5SV2 inoculum (1.5 × 10^5 cells/mL). Cell growth was compared to untreated control wells (100% cell growth) and medium-control wells (0% cell growth). After 3 days incubation, MRC-5 viability was assessed fluorimetrically after addition of 50 μL resazurin per well (final concentration of 10 µg mL^−1). After 4 h at 37 °C, fluorescence was measured (λex 550 nm, λem 590 nm). The results were expressed as % reduction in cell growth/viability compared to positive (100% growth–0% inhibition) and negative (0% growth–100% inhibition) control wells from which EC50 values (50% effective concentrations) were derived using an excel macro that calculates the interpolation of the concentrations corresponding to the flanking points, just above and just below 50% inhibition.

[4] = test system: Trypanosoma cruzi Tulahuen CL2 strain; assay: Intracellular T. cruzi assay in MRC-5 cells (β-galactosidase/CPRG, 7 days); type: cell-based; conditions: Trypanosoma cruzi, TULAHUEN, MRC5, 168 h, intracellular in MRC-5 cells
Procedure: as §1, §2
MRC-5 cells were infected in 96-well plates using a harvested T. cruzi inoculum (4 × 10^3 MRC-5 cells/well + 4 × 10^4 parasites/well) and exposed to 10 µL of the compound dilutions (200 µL/well total volume). Parasite growth determined after 7 days of incubation and compared to untreated infected controls following the addition of the substrate CPRG (chlorophenolred ß-D-galactopyranoside): 50 µL/well of a stock solution containing 15.2 mg CPRG + 250 µL Nonidet in 100 mL PBS. The absorbance was measured spectrophotometrically at 540 nm after 4 h incubation at 37 °C and EC50 values were calculated.

[5] = test system: L. infantum MHOM/MA(BE)/67 strain; assay: L. infantum intracellular amastigote assay in PMM (Giemsa, 5 days); type: cell-based, Leishmania infantum
Procedure: as §1, §2
Primary peritoneal mouse macrophages (PMMs) were prepared in RPMI-1640 medium, supplemented with 2 mM L-glutamine, 16.5 mM NaHCO3, and 5% inactivated fetal calf serum. The macrophages are infected after 48 h with spleen-derived L. infantum amastigotes (3 × 10^4 PMM + 4.5 × 10^5 parasites/well). The compounds were added after 2 h of infection. After 5 days incubation, parasite burdens (mean number of amastigotes/macrophage) were assessed microscopically after staining with a 10% Giemsa solution and EC50 values were calculated.

[6] = read-out: T. b. rhod. (EC50, µM), 3 days
[7] = read-out: T. b. bruc. (EC50, µM), 3 days
[8] = Leishmania infantum, 120 h, read-out: L. inf. (EC50, µM), amastigotes in PMM, 5 days
[9] = 3 days, read-out: T. b. rhod. (EC50)
[10] = 3 days, read-out: T. b. bruc. (EC50)
[11] = Leishmania infantum, 120 h, amastigotes in PMM, 5 days, read-out: L. inf. (EC50)

SMILES | EC50 [1, 6] [µM] | EC50 [2, 7] [µM] | EC50 at 3 days [3] [µM] | EC50 [4] [µM] | EC50 [5, 8] [µM] | EC50 ([5]; read-out: L. inf. (EC50), amastigotes in PMM, 5 days) [µM] | EC50 [1, 9] [µM] | EC50 [2, 10] [µM] | EC50 [5, 11] [µM]
O=C(NCCN1CCOCC1)c1cn(-c2ccccc2)nc1-c1ccc2c(c1)OCCO2 [Compound 44, 3-(2,3-dihydrobenzo[b][1,4]dioxin-6-yl)-N-(2-morpholinoethyl)-1-phenyl-1H-pyrazole-4-carboxamide hydrochloride] | 19 | > 64 | > 64 | 64 | 9.51 | 8.3 | – | – | –
Fc1ccc(COCc2cn(-c3ccccc3)nc2-c2ccc3c(c2)OCCO3)cc1 [Compound 45, 3-(2,3-dihydrobenzo[b][1,4]dioxin-6-yl)-4-(((4-fluorobenzyl)oxy)methyl)-1-phenyl-1H-pyrazole] | – | – | > 64 | 5.51 | – | – | 7.16 | 27.2 | 22.6
c1ccc(-n2cc(COCc3cn(-c4ccccc4)nc3-c3ccc4c(c3)OCCO4)nn2)cc1 [Compound 46, 4-(((3-(2,3-dihydrobenzo[b][1,4]dioxin-6-yl)-1-phenyl-1H-pyrazol-4-yl)methoxy)methyl)-1-phenyl-1H-1,2,3-triazole] | – | – | > 64 | > 64 | – | – | 2.18 | 9.04 | 32.5
Fc1ccc(-n2cc(COCc3cn(-c4ccccc4)nc3-c3ccc4c(c3)OCCO4)nn2)cc1 [Compound 47, 4-(((3-(2,3-dihydrobenzo[b][1,4]dioxin-6-yl)-1-phenyl-1H-pyrazol-4-yl)methoxy)methyl)-1-(4-fluorophenyl)-1H-1,2,3-triazole] | – | – | 51.5 | 64 | – | – | 5.56 | 55.9 | > 64
c1ccc(Cn2cc(COCc3cn(-c4ccccc4)nc3-c3ccc4c(c3)OCCO4)nn2)cc1 [Compound 48, 1-benzyl-4-(((3-(2,3-dihydrobenzo[b][1,4]dioxin-6-yl)-1-phenyl-1H-pyrazol-4-yl)methoxy)methyl)-1H-1,2,3-triazole] | – | – | > 64 | > 64 | – | – | 1.78 | > 64 | 32.5
c1ccc(Cc2cn(-c3ccccc3)nc2-c2ccc3c(c2)OCCO3)cc1 [Compound 49, 4-benzyl-3-(2,3-dihydrobenzo[b][1,4]dioxin-6-yl)-1-phenyl-1H-pyrazole] | – | – | 59.5 | 7.35 | – | – | 16.5 | 29.3 | 38.1
Clc1ccc(Cc2cn(-c3ccccc3)nc2-c2ccc3c(c2)OCCO3)cc1 [Compound 50, 4-(4-chlorobenzyl)-3-(2,3-dihydrobenzo[b][1,4]dioxin-6-yl)-1-phenyl-1H-pyrazole] | – | – | > 64 | 7.53 | – | – | 8.52 | 27.2 | 12.7
FCc1cn(-c2ccccc2)nc1-c1ccc2c(c1)OCCO2 [Compound 52, 3-(2,3-dihydrobenzo[b][1,4]dioxin-6-yl)-4-(fluoromethyl)-1-phenyl-1H-pyrazole] | – | – | 22.6 | 23.9 | – | – | 27.1 | > 64 | > 64
FC(F)c1cn(-c2ccccc2)nc1-c1ccc2c(c1)OCCO2 [Compound 53, 4-(difluoromethyl)-3-(2,3-dihydrobenzo[b][1,4]dioxin-6-yl)-1-phenyl-1H-pyrazole] | – | – | 21.8 | 6.44 | – | – | 19 | 30.3 | 32.5
O=C(NCc1cn(-c2ccccc2)nc1-c1ccc2c(c1)OCCO2)Nc1ccc(F)cc1 [Compound 54, 1-((3-(2,3-dihydrobenzo[b][1,4]dioxin-6-yl)-1-phenyl-1H-pyrazol-4-yl)methyl)-3-(4-fluorophenyl)urea] | – | – | > 64 | > 64 | – | – | > 64 | > 64 | > 64
c1ccc(-n2cc(CNCCc3ccccn3)c(-c3ccc4c(c3)OCO4)n2)cc1 [Compound 59, N-((3-(benzo[d] [1,3]dioxol-5-yl)-1-phenyl-1H-pyrazol-4-yl)methyl)-2-(pyridin-2-yl)ethan-1-amine hydrochloride] | 1.61 | 1.64 | 26.6 | 6.71 | 8.06 | – | – | – | –
CNC(=O)c1cc(Oc2ccc(NCc3cn(-c4ccccc4)nc3-c3ccc4c(c3)OCO4)cc2)ccn1 [Compound 60, 4-(4-(((3-(benzo[d] [1,3]dioxol-5-yl)-1-phenyl-1H-pyrazol-4-yl)methyl)amino)phenoxy)-N-methylpicolinamide] | – | – | 60.7 | > 64 | – | – | 5.18 | > 64 | 32.5
COc1ccc(-c2nn(-c3ccccc3)cc2CNCCc2ccccn2)cc1 [Compound 64, N-((3-(4-methoxyphenyl)-1-phenyl-1H-pyrazol-4-yl)methyl)-2-(pyridin-2-yl)ethan-1-amine hydrochloride] | 1.57 | 1.7 | 28.9 | 7.15 | 8.06 | – | – | – | –
COc1ccc(-c2nn(-c3ccccc3)cc2CN2CCCC2)cc1 [Compound 65, 3-(4-methoxyphenyl)-1-phenyl-4-(pyrrolidin-1-ylmethyl)-1H-pyrazole oxalate] | – | – | 32 | 28.9 | – | – | 6.43 | 6.87 | 33.2
COc1ccc(-c2nn(-c3ccccc3)cc2CN2CCOCC2)cc1 [Compound 66, 4-((3-(4-methoxyphenyl)-1-phenyl-1H-pyrazol-4-yl)methyl)morpholine hydrochloride] | 20.5 | 27.8 | > 64 | 22.4 | 34.6 | – | – | – | –
COc1ccc(-c2nn(-c3ccccc3)cc2COCc2ccc(F)cc2)cc1 [Compound 68, 4-(((4-fluorobenzyl)oxy)methyl)-3-(4-methoxyphenyl)-1-phenyl-1H-pyrazole] | – | – | > 64 | 5.33 | – | – | 11.4 | 29.6 | 36.8
